Measurements published in US20140044690A1, “High-Energy Compounds for Use in Alzheimer's and Other Neurodegenerative Diseases” (University Of South Florida, priority 2012, published 2014).

Tests used:
APP α-processing [1] = assay: APP secretion assay (sAPPα release) in human skin fibroblasts from young and aged donors; assay type: cell-based; settings: for sAPPα level, of the control, co-treatment with rotenone: 0.2 μM rotenone two hours; for sAPPα level, of the control, co-treatment with rotenone / sAPPα level, of the control, co-treatment with H2O2: co-treatment 1.5 mM each; for sAPPα release in aged cells, of the young cell level: aged human skin fibroblasts (donor age 81-96), 0.5 mM each, untreated aged cells 42.5%; for sAPPα level, of the control, co-treatment with H2O2: 0.2 mM H2O2 two hours
Protocol: (§1) SH-SY5Y and fibroblast cells were routinely maintained in DMEM supplemented with 10% bovine fetal serum and 100 μg/ml of streptomycine and 100 U/ml of penicillin. For APP secretion assay, the cells were subcultured in the 12-well plate until confluence and then pre-incubated in the serum-free DMEM for 1 hour before the addition of the testing agents. After incubation for 2 hours at 37° C., conditioned medium was collected and cleared by centrifugation. Proteins were precipitated by trichloroacetic acid and processed for gel electrophoresis and Western blotting as described previously (Weidemann et al. 1989; Chen and Fernandez, 2004). A near-infrared dye-conjugated secondary antibody (LI-COR Biosci., NE, USA) was used and visualized with a LI-COR Odyssey Infrared Imaging System.

SH-SY5Y cells = assay: Cell survival and viability MTT assay / microscopy in SH-SY5Y cells; assay type: cell-based; settings: for cell survival, of the untreated control, rotenone-induced death: 2 days, pre-incubation 1 mM each; for cell survival, of the control, H2O2-induced death: 0.6 mM H2O2, by 20 hours, pre-treatment 1 mM each; for cell survival in H2O2-induced death (in words): H2O2 (not shown)
Protocol: SH-SY5Y cells were subcultured in the 12-well plate in DMEM containing 10% fetal bovine serum until 50% confluency. For experiment, the medium was replaced with serum-free DMEM and testing agents were added. The culture was continued in the incubator and parallel samples were taken out at various time intervals for microscopic examination or cell viability assay using an MTT toxicity assay kit (Sigma, Mo.) according to the manufacturer's instructions with modifications (Chen and Fernandez, 2004).

APP α-processing [2] = assay: APP secretion assay (sAPPα release, Western blotting) in SH-SY5Y cells; assay type: cell-based, human; settings: for effect on APP α-processing / APP secretion (in words) / sAPPα release relative to basal line: 2 hours; for effect on APP α-processing / APP secretion (in words): compared with ATP, acetyl-coA, PCr; for sAPPα release relative to basal line: 1 mM each
Protocol: as §1

## C=C(OP(=O)(O)O)C(=O)O [PEP, phosphoenol pyruvate]
APP α-processing [1]; young fibroblasts
  sAPPα level, of the control, co-treatment with rotenone: 90.3%
SH-SY5Y cells; 0.2 μM rotenone, MTT
  cell survival, of the untreated control, rotenone-induced death: 53%
SH-SY5Y cells; 0.2 μM rotenone, pre-incubation 1 mM for 30 min
  cell morphology under microscopy, rotenone-induced death: substantially preserved the cell shape and the processes
SH-SY5Y cells
  cell survival, of the control, H2O2-induced death: 38%

## Nc1ncnc2c1ncn2[C@@H]1O[C@H](COP(=O)(O)OP(=O)(O)O)[C@@H](O)[C@H]1O [ADP, adenosine diphosphate, reference compound]
APP α-processing [2]
  effect on APP α-processing / APP secretion (in words): did not show the same effects

## CC(C)(COP(=O)(O)OP(=O)(O)OC[C@H]1O[C@@H](n2cnc3c(N)ncnc32)[C@H](O)[C@@H]1OP(=O)(O)O)[C@@H](O)C(=O)NCCC(=O)NCCS [CoA, coenzyme A, reference compound]
APP α-processing [2]
  effect on APP α-processing / APP secretion (in words): did not show the same effects

## CN(CC(=O)O)C(=N)N [Cr, creatine, reference compound]
APP α-processing [2]
  effect on APP α-processing / APP secretion (in words): did not show the same effects

## C=C(C)[C@H]1Cc2c(ccc3c2O[C@@H]2COc4cc(OC)c(OC)cc4[C@@H]2C3=O)O1 [rotenone, reference compound]
APP α-processing [1]; young fibroblasts, 0.2 μM rotenone, two hours
  sAPPα level, of the control, rotenone alone: 52.3%
SH-SY5Y cells; 0.2 μM rotenone, MTT
  cell death caused by rotenone alone: caused all cells to die by 2 days

## Nc1ncnc2c1ncn2[C@@H]1O[C@H](COP(=O)(O)OP(=O)(O)OP(=O)(O)O)[C@@H](O)[C@H]1O [ATP, adenosine triphosphate]
APP α-processing [1]
  sAPPα release in aged cells, of the young cell level: 82.3%
APP α-processing [1]; young fibroblasts
  sAPPα level, of the control, co-treatment with rotenone: 79.2%
  sAPPα level, of the control, co-treatment with H2O2: 89.3%
APP α-processing [2]
  sAPPα release relative to basal line: 3.3 fold
APP α-processing [2]; Homo sapiens, read-out: EC50 for promoting sAPPα release
  EC50: 480 µM
APP α-processing [2]; NaN3 25 mM pre-incubated 15 minutes
  stimulatory effect on sAPPα release in the presence of NaN3: completely abolished
APP α-processing [2]; rotenone 20 μM pre-incubated 15 minutes
  stimulatory effect on sAPPα release in the presence of rotenone: completely abolished
SH-SY5Y cells; 0.2 μM rotenone, MTT
  cell survival, of the untreated control, rotenone-induced death: 15%
SH-SY5Y cells
  cell survival in H2O2-induced death (in words): moderately increased cell survival

## Nc1nc2c(ncn2[C@@H]2O[C@H](COP(=O)(O)OP(=O)(O)OP(=O)(O)O)[C@@H](O)[C@H]2O)c(=O)[nH]1 [GTP, guanosine triphosphate]
SH-SY5Y cells; 0.2 μM rotenone, MTT
  cell survival, of the untreated control, rotenone-induced death: 17%
SH-SY5Y cells
  cell survival in H2O2-induced death (in words): moderately increased cell survival

## N[C@@H](CCC(=O)O)C(=O)O [glutamate, reference compound]
APP α-processing [2]
  sAPPα release relative to basal line: 2.3 fold

## CC(=O)SCCNC(=O)CCNC(=O)[C@H](O)C(C)(C)COP(=O)(O)OP(=O)(O)OC[C@H]1O[C@@H](n2cnc3c(N)ncnc32)[C@H](O)[C@@H]1OP(=O)(O)O [acetyl-coA, acetyl coenzyme A]
APP α-processing [1]; young fibroblasts
  sAPPα level, of the control, co-treatment with H2O2: 74.5%
APP α-processing [2]
  sAPPα release relative to basal line: 3.8 fold
SH-SY5Y cells; 0.2 μM rotenone, MTT
  cell survival, of the untreated control, rotenone-induced death: 35%
SH-SY5Y cells
  cell survival, of the control, H2O2-induced death: 21%

## CN(CC(=O)O)C(=N)NP(=O)(O)O [PCr, phosphocreatine]
APP α-processing [1]
  sAPPα release in aged cells, of the young cell level: 79.6%
APP α-processing [2]
  sAPPα release relative to basal line: 4.2 fold
SH-SY5Y cells; 0.2 μM rotenone, MTT
  cell survival, of the untreated control, rotenone-induced death: 42%
SH-SY5Y cells
  cell survival, of the control, H2O2-induced death: 49%

## OO [H2O2, reference compound]
APP α-processing [1]; young fibroblasts, 0.2 mM H2O2, two hours
  sAPPα release, of the young cell control, H2O2 alone: 46.1%
SH-SY5Y cells; 0.6 mM H2O2
  cell death caused by H2O2 alone: killed all cells by 10 hours
